We go through two molecules from patent publication US8809010B2, “Method for prophylactic treatment of alzheimer's disease using inhibitors of glutaminyl cyclase and glutamate cyclases” (Probiodrug AG, priority 2003, dated 2014).

Series [1] can be described thus: Plasma half-life. The class given is in vivo. As to conditions: rat.
Series [2] concerns pGlu-Aβ(3-40) formation in rat cortex. The series is described as follows: Rat model, intracortical injection of Aβ peptides (traumatic brain injury), ELISA and immunohistochemistry. The class given is in vivo. Background: In an ELISA, binding on a coated surface is turned into a signal by an enzyme label.
Protocol: Aβ(x-40), Aβ(x-42) and Aβ (N3pE-42)-specific sandwich ELISAs (all from IBL, Hamburg) were performed according to the manufacturer's manual. Briefly, samples were diluted according to the expected concentration in the brain parts and applied onto a plate precoated with an antibody specific for the respective C-terminus. The samples were incubated overnight. The next day, the plate was washed 8 times and incubated for 1 h with a horse radish peroxidase conjugated detection antibody afterwards. Following this incubation the plate was washed 10 times and then developed with chromogen (TMB) for 30 min. After applying the stop solution the absorption at 450 nm was measured using a microplate reader (TECAN Sunrise). For preparation of standard curves the respective synthetic peptides supplied with the ELISA kits were used.
Samples for ELISA were prepared from 8 animals per group (total 32 animals). After removal of the brain, the tissue were flushed shortly with ice cold saline and placed shortly on filter paper. The cerebellum were prepared from each brain and stored separately. The brains were weighed and frozen in liquid nitrogen in 2 ml Cryo-tubes and stored at −80° C. until analysis.
For sequential separation of Aβ the following procedures were used: […]
In series [3] the test system is pGlu-Aβ(3-42) formation in HEK293 and β-TC3 cells. The series is described as follows: pGlu-Aβ formation in cell culture (APP or mTRH-Aβ constructs), ELISA of medium. The class given is cell-based. How it is done:
Aβ(x-42) shall here relate to all N-terminal Aβ or truncated Aβ forms.
In the accompanying approach, plasmids encoding variants of human APP were transfected into HEK293 cells (FIG. 24-2). The processing by β- and γ-secretase yields high amounts of Aβ(3-40/42), which can be detected in the culture medium.
For analysis of Aβ in case of the cell culture studies, conditioned medium was diluted using EIA buffer (IBL, Hamburg) as before and diluted samples were subjected to ELISA analysis.

In series [4] the test system is THP-1 monocytes. The series is described as follows: TransWell chemotaxis assay. The class given is cell-based, human. As to conditions: 10 μM inhibitor, dilutions 1:3 and 1:10. How it is done: The chemotaxis assay was performed using 24 well TransWell plates with a pore size of 5 μm (Corning). Media, containing human MCP-1 variants expressed in HEK293, were used as chemoattractant. To this avail, 600 μl of the culture media of N-terminal human MCP-1 variants was applied directly or in dilutions 1:3, 1:10 and 1:30 in RPMI1640 to the lower chamber of the TransWell plate. Furthermore, undiluted media of HEK293 cells transfected with vector control were applied as negative control to the lower chamber. THP-1 cells were harvested and resuspended in RPMI1640 in a concentration of 1*10^6 cells/100 μl and applied in 100 μl aliquots to the upper chamber. Cells were allowed to migrate towards the chemoattractant for 2 h at 37° C. Subsequently, cells from the upper chamber were discarded and the lower chamber was mixed with 70 mM EDTA in PBS and incubated for 15 min at 37° C. to release cells attached to the membrane. Afterwards, cells migrated to the lower chamber were counted using a cell counter system (Schärfe System). The chemotactic index was calculated by dividing cells migrated to the stimulus from cells migrated to the negative control.

In series [5] the test system is cuffed femoral artery: vascular remodeling, monocyte adhesion, MCP-1 expression. Description: Cuff-induced accelerated atherosclerosis in ApoE3*Leiden mice. The class given is in vivo. Set-up: reduction of percentage of lumen stenosis / reduction of the area of neointima formation / reduction of total adhering cells / reduction of adhering monocytes / reduction of MCP-1 expression, absolute area, media / reduction of MCP-1 expression, absolute area, intima: concentration or dose not given beside the values. How it is done: After 3 weeks the mice underwent surgical non-constricting cuff placement (day 0) and were divided into 2 groups, matched for plasma cholesterol levels.
At the time of surgery, mice were anaesthetized with an intraperitoneal injection of 5 mg/kg Dormicum, 0.5 mg/kg Domitor and 0.05 mg/kg Fentanyl. This cocktail gives complete narcosis for at least one hour and can be quickly antagonized with Antisedan 2.5 mg/kg and Anexate 0.5 mg/kg.
A longitudinal 1 cm incision is made in the internal side of the leg and the femoral artery is dissected for 3 mm length from the femoral nerve and femoral vein. The femoral artery is looped with a ligature and a non-constrictive fine bore polyethylene tubing (0.4 mm inner diameter, 0.8 mm outer diameter, length 2 mm) is longitudinally opened and sleeved loosely around the femoral artery. The cuff is closed up with two ligature knots. The skin is closed with a continued suture.
For histological analysis, animals were sacrificed either 2 days or 14 days after cuff placement. […] After perfusion, a longitudinal 2 cm incision was made in the internal side of the leg and the cuffed femoral artery was harvested as a whole and fixed overnight in 4% formaldehyde and processed to paraffin.
Adhesion of leukocytes in general and monocytes/macrophages in particular to the activated endothelium of the cuffed vessel wall was analyzed by microscopic analysis of cross sections harvested 2 days after cuff placement. The number of adhering and/or infiltrating leukocytes in general, identified as adhering cells at the luminal side of the vessel segment, and monocytes/macrophages in particular was counted and illustrated as cells per cross-section or as defined areas per cross section. Monocytes were identified by specific immunohistochemical staining by AIA31240 antibody, recognizing monocytes and macrophages.
Vessel wall remodeling accelerated atherosclerosis and neoinitima formation were analyzed morphometrically in all mice sacrificed after 14 days. A full comparison between the two groups was performed for all relevant vessel wall parameters (neointima formation, vascular circumference (i.e. outward remodelling), media thickness, lumen stenosis). Accelerated atherosclerosis was analyzed by immunohistochemical staining for macrophages and foam cells in the lesion area by AIA31240 antibody.

Series [6] deals with human MCP-1 concentration, HEK293 cells. The series is described as follows: Expression of human MCP-1 in HEK293 cells, MCP-1 ELISA of supernatant. The class given is cell-based. As to conditions: 10 μM inhibitor. How it is done: For expression of N-terminal variants of human MCP-1, HEK293 cells were cultured in collagen I coated 6-well dishes and grown until 80% confluency, transfected using Lipofectamin2000 (Invitrogen) according to manufacturer's manual and incubated in the transfection solution for 5 hours. Afterwards, cells were allowed to recover in normal growth media over night. The next day, cells were incubated another 24 h in growth media. When application of QC specific inhibitor […] was intended, cells were incubated for 24 h in absence or presence of 10 μM […]. […] Furthermore, an aliquot of cell culture supernatant was stored at −80° C. for quantification of human MCP-1 concentration using human MCP-1-ELISA (Pierce).

In series [7] the test system is LNZ-308 cells. Description: Aβ in conditioned medium after transient APP expression, BACE I inhibition, ELISA. The class given is cell-based. How it is done: (§1) The constructs are depicted in FIG. 33. The APP-encoding plasmids differed with respect to the sequence surrounding the β-secretase cleavage site, i.e. either carried the swedish mutation (KM595/596NL) or the wild-type sequence (K595M596) at the β-secretase-cleavage site. Furthermore, the constructs encoded either the London (V642I) or wild-type sequence (V642) near the γ-secretase cleavage site. The swedish mutation leads to an elevated generation of Aβ due to enhanced cleavage by the β-secretase BACE I. The London mutation mediates enhanced formation of Aβ42 peptides compared to the wild-type sequence without affecting the total Aβ generation.
(§2) In order to substantiate the role of these newly discovered enzyme activity generating the molecular precursor of pGlu-Aβ peptides, inhibitors of the known β-secretase BACE I were employed in experiments based on transient expression of the plasmid constructs outlined in FIG. 33. Similar to the observations with the APP(N3Q) constructs, N-terminally truncated peptides were generated mainly after APP-WT and APP-London expression.
(§3) Aβ(x-40), Aβ(x-42) and Aβ (N3pE-42)-specific sandwich ELISAs (all from IBL, Hamburg) were performed according to the manufacturer's manual. […] After applying the stop solution the absorption at 450 nm was measured using a microplate reader (TECAN Sunrise). […]

The subject of series [8] is HEK293 cells. The description is as above. The class given is cell-based, human. The protocol: as §1, §2, §3

By half-life is commonly meant how long it takes for the measured level to halve. Consider `COc1ccc(NC(=S)NCCCn2ccnc2)cc1OC.Cl` [1-(3-(1H-imidazol-1-yl)propyl)-3-(3,4-dimethoxyphenyl)thiourea hydrochloride], for which, in series [1], the half-life is less than 1 h. The pGlu-Aβ immunostaining entry in series [2] (injected prior to Aβ(3-40)) is on record as “significant reduction in pGlu-Aβ immunostaining”. Besides, the “pGlu-Aβ after injection of Aβ(1-40)” value in series [2] (rat, in vivo) was “did not result in a clear reduction of pGlu-Aβ”. The “pGlu-Aβ concentration in medium” value in series [3] (HEK293 and β-TC3 settings) is on record as “significantly reduced”. Moreover, the “total Aβ concentration in medium” value in series [3] (indicator of cell viability) is on record as “not reduced”. The “chemotaxis of THP-1 cells towards MCP-1 (WT) supernatant” value in series [4] is listed as “significantly lower chemotaxis”. Besides, in series [5] (2 days), the “reduction of MCP-1 expression, absolute area, intima” value is listed as 40%; the “reduction of MCP-1 expression, absolute area, media” value is recorded as 41%; the “reduction of adhering monocytes” value is given as 67%; the “reduction of total adhering cells” value was determined as 45%. For the same molecule, in series [5] (14 days), the “MCP-1 expression in media or neointima” value was “no reduction of MCP-1 expression”, the “area of the media” value is reported as “reduced”, the “reduction of percentage of lumen stenosis” value came to 40% and the “reduction of the area of neointima formation” value turned out to be 45%. Further, the remaining lumen entry in series [5] (14 days) is “no statistically significant effect”. Also, in series [6], the “level of MCP-1 (WT) in supernatant” value is recorded as “not significantly changed”.

With `C[C@@H](NC(=O)c1cc(C(=O)N[C@@H](Cc2ccccc2)[C@H](O)CNC2CC2)cc(N(C)S(C)(=O)=O)c1)c1ccccc1` [BACE IV], the “total Aβ lowering” value in series [7] is listed as “only marginal efficacy”. For the same molecule, in series [8], the “Aβ(1-40) and Aβ(1-42)” value was “reduced the N-terminally intact Aβ-peptides”. Besides, the “total Aβ40-concentration” value in series [8] (HEK293 cells) is given as “did not influence the total Aβ40-concentration significantly”.
